# From patent EP4768499A1, “MACROCYCLIC PEPTIDE COMPOUND HAVING CELL MEMBRANE PERMEABILITY AND METABOLIC STABILITY, AND LIBRARY CONTAINING SAME” (Chugai Seiyaku Kabushiki Kaisha, priority 2023, dated 2025)
# Starred links: 1 amine or outer side, 2 acyl side, 3 side chain; linkers in the order of their positions; H or OH if unused. Positions of bridges follow the written chain, without caps; N, C: chain ends. Non-standard residues stand in square brackets, D forms with d. Residues, ends and D or L forms follow the SMILES beside them. *: point of attachment. NMeF = CN[C@@H](Cc1ccccc1)C(=O)O; NMeGABA = CN(CCCC(=O)[*:2])[*:1]; NMeI = CC[C@H](C)[C@H](NC)C(=O)O; NMeT = CN[C@H](C(=O)O)[C@@H](C)O; hPhe = N[C@@H](CCc1ccccc1)C(=O)O; NMeβAla = CN(CCC(=O)[*:2])[*:1]; NMeL = CN[C@@H](CC(C)C)C(=O)O; NMeV = CN[C@H](C(=O)O)C(C)C; d(β3hA) = C[C@@H](N)CC(=O)O; NMeAbu = CC[C@H](NC)C(=O)O; NMeA = CN[C@@H](C)C(=O)O; Piperidide = C1CCN(*)CC1; Abu = CC[C@H](N)C(=O)O; Sar = CNCC(=O)O; tBu = CC(C)(C)*
# How the values were obtained:
# [1] = Metabolic stability test: liver microsomal stability assay; type: in vitro ADME, mouse; settings: mouse liver microsomes 0.5 mg protein/mL, compound 1 µM; for microsomal CLint at 1 µM: male, pH 7.4, presence of NADPH, read-out: Mouse Hepatic Microsome CLh,int NADPH(+); for Mouse Hepatic Microsome CLh,int NADPH(-): absence of NADPH
# Caco-2 cells = assay: Membrane permeability test using Caco-2 cells with preincubation; type: in vitro ADME; settings: Caco-2 cells, preincubation 20 to 24 hours; apical FaSSIF/HBSS 1% DMSO pH 6.0, basal HBSS 4% BSA pH 7.4; basal sample at 180 minutes
# [2] = as above; type: in vitro ADME; settings: Caco-2; preincubation 20 to 24 hours; Apical FaSSIF/HBSS pH 6.0, Basal HBSS 4% BSA pH 7.4; 180 minutes; read-out: Caco2 Papp
microsomal CLint at 1 µM [1] [µL/min/mg],"Mouse Hepatic Microsome CLh,int NADPH(-) [1] [µL/min/mg Protein]",Caco2 Papp (10^-6 cm/sec) (Caco-2 cells),Papp A→B [2] [×10⁻⁶ cm/s],Compound
18.3,17.7,0.26 10^-6 cm/sec,0.26,CC[C@H](C)[C@H]1C(=O)N[C@@H]([C@@H](C)O)C(=O)N(C)CC(=O)N(C)[C@@H](CC(C)C)C(=O)N[C@@H](CC(C)C)C(=O)N[C@H](C(=O)N2CCCCC2)CC(=O)N(C)[C@@H](C)C(=O)N[C@@H](CC(C)C)C(=O)N(C)[C@@H](CC(C)C)C(=O)N[C@@H](C(C)C)C(=O)N(C)CCC(=O)N(C)[C@@H](Cc2ccccc2)C(=O)N[C@@H](C)C(=O)N(C)[C@@H](Cc2ccccc2)C(=O)N1C [pd037] ([NMeA]L[NMeL]V[NMeβAla][NMeF]A[NMeF][NMeI]T[Sar][NMeL]LD-Piperidide; lactam N-14)
21.4,15.6,0.03 10^-6 cm/sec,0.03,CC[C@H](C)[C@@H]1NC(=O)[C@H](CC(C)C)N(C)C(=O)CN(C)C(=O)C[C@@H](C(=O)N2CCCCC2)NC(=O)[C@H](C)N(C)C(=O)CNC(=O)[C@H](C(C)C)N(C)C(=O)[C@H](C)N(C)C(=O)[C@H](Cc2ccccc2)N(C)C(=O)[C@H](C(C)C)NC(=O)[C@H](CC(C)C)NC(=O)[C@H](Cc2ccccc2)N(C)C(=O)[C@H]([C@@H](C)O)NC(=O)[C@H](CC(C)C)N(C)C1=O [pd039] ([Sar][NMeL]I[NMeL]T[NMeF]LV[NMeF][NMeA][NMeV]G[NMeA]D-Piperidide; lactam N-14)
25.1,23.5,0.13 10^-6 cm/sec,0.13,CC[C@H](C)[C@@H]1NC(=O)[C@H](C)N(C)C(=O)[C@H]([C@@H](C)O)NC(=O)[C@H](CC(C)C)N(C)C(=O)[C@H](CC)N(C)C(=O)[C@H](Cc2ccccc2)N(C)C(=O)[C@H](C)NC(=O)[C@H](Cc2ccccc2)N(C)C(=O)[C@H](C)N(C)C(=O)[C@H](CC(C)C)N(C)C(=O)[C@H](CC(C)C)NC(=O)CCCN(C)C(=O)C[C@@H](C(=O)N2CCCCC2)NC(=O)[C@H](CC(C)C)N(C)C1=O [pd041] ([NMeGABA]L[NMeL][NMeA][NMeF]A[NMeF][NMeAbu][NMeL]T[NMeA]I[NMeL]D-Piperidide; lactam N-14)
40.7,34.8,0.16 10^-6 cm/sec,0.16,CC[C@H](C)[C@@H]1NC(=O)[C@@H]2CCCN2C(=O)[C@H](CC(C)C)N(C)C(=O)[C@H](CC(C)C)NC(=O)[C@H]([C@@H](C)CC)N(C)C(=O)[C@H]([C@@H](C)O)NC(=O)[C@H](Cc2ccccc2)N(C)C(=O)[C@H](CC)N(C)C(=O)[C@H](Cc2ccccc2)N(C)C(=O)[C@H](C(C)C)NC(=O)[C@H](CC(C)C)N(C)C(=O)[C@H](C)N(C)C(=O)C[C@@H](C(=O)N2CCCCC2)NC(=O)[C@H](C(C)C)N(C)C1=O [pd043] ([NMeA][NMeL]V[NMeF][NMeAbu][NMeF]T[NMeI]L[NMeL]PI[NMeV]D-Piperidide; lactam N-14)
43.9,26.4,0.32 10^-6 cm/sec,0.32,CC[C@H](C)[C@@H]1NC(=O)[C@H](C)N(C)C(=O)C[C@@H](C(=O)N2CCCCC2)NC(=O)[C@H](CC)N(C)C(=O)[C@H](COC(C)(C)C)NC(=O)[C@H](CC(C)C)N(C)C(=O)[C@H](C)N(C)C(=O)[C@H](CC(C)C)N(C)C(=O)[C@H](Cc2ccccc2)N(C)C(=O)CN(C)C(=O)[C@H]([C@@H](C)O)NC(=O)[C@H](CC(C)C)N(C)C(=O)[C@H](C(C)C)NC(=O)[C@H](Cc2ccccc2)N(C)C1=O [pd045] ([NMeA]I[NMeF]V[NMeL]T[Sar][NMeF][NMeL][NMeA][NMeL]S(tBu)[NMeAbu]D-Piperidide; lactam N-14)
6.2,5.4,0.06 10^-6 cm/sec,0.06,CC[C@@H]1NC(=O)[C@H](C)N(C)C(=O)[C@H](CC(C)C)N(C)C(=O)[C@H]([C@@H](C)O)N(C)C(=O)[C@H](CC(C)C)N(C)C(=O)[C@H](C)NC(=O)[C@H](Cc2ccccc2)N(C)C(=O)CN(C)C(=O)C[C@@H](C(=O)N2CCCCC2)NC(=O)[C@H](C(C)C)N(C)C(=O)[C@H](C)NC(=O)[C@@H]2CCCN2C(=O)[C@H](C(C)C)NC(=O)[C@H](Cc2ccccc2)N(C)C1=O [pd046] ([Sar][NMeF]A[NMeL][NMeT][NMeL][NMeA][Abu][NMeF]VPA[NMeV]D-Piperidide; lactam N-14)
30.2,20.7,0.28 10^-6 cm/sec,0.28,CC[C@H](C)[C@H]1C(=O)N(C)[C@@H](CC(C)C)C(=O)N[C@H](C(=O)N2CCCCC2)CC(=O)N(C)CCCC(=O)N[C@@H](CC(C)C)C(=O)N(C)[C@@H](CC(C)C)C(=O)N(C)[C@@H](C)C(=O)N(C)[C@@H](Cc2ccccc2)C(=O)N[C@@H](C)C(=O)N(C)[C@@H](Cc2ccccc2)C(=O)N(C)[C@@H](CC)C(=O)N(C)[C@@H](CC(C)C)C(=O)N[C@@H]([C@@H](C)O)C(=O)N(C)[C@@H](C)C(=O)N1C [pd048] ([NMeGABA]L[NMeL][NMeA][NMeF]A[NMeF][NMeAbu][NMeL]T[NMeA][NMeI][NMeL]D-Piperidide; lactam N-14)

# The next lines start with the molecule.
Compound,microsomal CLint at 1 µM [1] [µL/min/mg],"Mouse Hepatic Microsome CLh,int NADPH(-) [1] [µL/min/mg Protein]",Caco2 Papp (10^-6 cm/sec) (Caco-2 cells),Papp A→B [2] [×10⁻⁶ cm/s]
CC[C@@H]1NC(=O)[C@H]([C@@H](C)O)N(C)C(=O)CCN(C)C(=O)[C@H]([C@@H](C)CC)NC(=O)[C@H](Cc2ccccc2)N(C)C(=O)CN(C)C(=O)C[C@@H](C(=O)N2CCCCC2)NC(=O)[C@H]([C@@H](C)CC)N(C)C(=O)[C@H](COC(C)(C)C)NC(=O)[C@@H]2CCCN2C(=O)[C@H](CCc2ccccc2)NC(=O)[C@H](CC)N(C)C(=O)[C@H](C)NC(=O)[C@H](CC(C)C)N(C)C1=O [pd038] ([Sar][NMeF]I[NMeβAla][NMeT][Abu][NMeL]A[NMeAbu][hPhe]PS(tBu)[NMeI]D-Piperidide; lactam N-14),12,18.1,0.04 10^-6 cm/sec,0.04
CC(C)C[C@@H]1NC(=O)[C@H]([C@@H](C)O)N(C)C(=O)[C@@H](C(C)C)NC(=O)C[C@@H](C(=O)N2CCCCC2)NC(=O)[C@H](C(C)C)N(C)C(=O)[C@H](C)N(C)C(=O)[C@H](C(C)C)NC(=O)[C@H](Cc2ccccc2)N(C)C(=O)[C@@H]2CCCN2C(=O)[C@H](CC(C)C)N(C)C(=O)CN(C)C(=O)[C@H](CCc2ccccc2)NC(=O)[C@H](CC(C)C)N(C)C(=O)[C@H](C(C)C)N(C)C1=O [pd040] ([dV][NMeT]L[NMeV][NMeL][hPhe][Sar][NMeL]P[NMeF]V[NMeA][NMeV]D-Piperidide; lactam N-14),24.8,22.3,0.17 10^-6 cm/sec,0.17
CC[C@H](C)[C@H]1C(=O)N[C@@H](Cc2ccccc2)C(=O)N2CCC[C@H]2C(=O)N(C)[C@@H](CC(C)C)C(=O)N[C@@H](COC(C)(C)C)C(=O)N(C)[C@@H](Cc2ccccc2)C(=O)N[C@@H]([C@@H](C)O)C(=O)N(C)[C@@H](CC)C(=O)N2CCC[C@H]2C(=O)N(C)[C@@H](CC(C)C)C(=O)N[C@@H](C(C)C)C(=O)N[C@H](C(=O)N2CCCCC2)CC(=O)N(C)CCCC(=O)N(C)[C@@H](CC(C)C)C(=O)N1C [pd042] ([NMeGABA][NMeL][NMeI]FP[NMeL]S(tBu)[NMeF]T[NMeAbu]P[NMeL]VD-Piperidide; lactam N-14),32.3,18.1,0.59 10^-6 cm/sec,0.59
CC[C@H](C)[C@H]1C(=O)N[C@@H]([C@@H](C)O)C(=O)N(C)CC(=O)N(C)[C@@H](CC(C)C)C(=O)N(C)[C@@H](Cc2ccccc2)C(=O)N[C@H](C(=O)N2CCCCC2)CC(=O)N(C)[C@@H](C)C(=O)N[C@@H](CC(C)C)C(=O)N(C)[C@@H](Cc2ccccc2)C(=O)N(C)[C@@H](C)C(=O)N(C)[C@@H](CC(C)C)C(=O)N[C@@H](COC(C)(C)C)C(=O)N(C)[C@@H](C)C(=O)N[C@@H](CC(C)C)C(=O)N1C [pd044] ([NMeA]L[NMeF][NMeA][NMeL]S(tBu)[NMeA]L[NMeI]T[Sar][NMeL][NMeF]D-Piperidide; lactam N-14),54.3,33.1,0.83 10^-6 cm/sec,0.83
CC(C)C[C@H]1C(=O)N2CCC[C@H]2C(=O)N(C)[C@@H](Cc2ccccc2)C(=O)N[C@@H](C(C)C)C(=O)N(C)[C@@H](C)C(=O)N(C)[C@@H](C(C)C)C(=O)N[C@H](C(=O)N2CCCCC2)CC(=O)N[C@H](C(C)C)C(=O)N(C)[C@@H]([C@@H](C)O)C(=O)N(C)[C@@H](CC(C)C)C(=O)N(C)[C@@H](C(C)C)C(=O)N(C)[C@@H](CC(C)C)C(=O)N[C@@H](CCc2ccccc2)C(=O)N(C)CC(=O)N1C [pd047] ([dV][NMeT][NMeL][NMeV][NMeL][hPhe][Sar][NMeL]P[NMeF]V[NMeA][NMeV]D-Piperidide; lactam N-14),41.4,30.0,0.16 10^-6 cm/sec,0.16
CC[C@H]1C(=O)N(C)[C@@H](C)C(=O)N[C@@H](CC(C)C)C(=O)N(C)[C@@H](C(C)C)C(=O)N[C@H](C)CC(=O)N[C@H](C(C)C)C(=O)N(C)[C@@H](CC(C)C)C(=O)N[C@@H](CC(C)C)C(=O)N(C)[C@@H](C(C)C)C(=O)N(C)[C@@H](CC(C)C)C(=O)N(C)CC(=O)N[C@@H]([C@@H](C)O)C(=O)N(C)[C@@H](Cc2ccccc2)C(=O)N[C@@H](COC(C)(C)C)C(=O)N1C [pd049] (cyclo(L[NMeV][NMeL][Sar]T[NMeF]S(tBu)[NMeAbu][NMeA]L[NMeV][d(β3hA)][dV][NMeL])),30.6,29.1,0.32 10^-6 cm/sec,0.32
